The first assay concerns the target T1, GPR139 (Homo sapiens, UniProt Q6DWJ6).
T1 sequence (Q6DWJ6 1-353): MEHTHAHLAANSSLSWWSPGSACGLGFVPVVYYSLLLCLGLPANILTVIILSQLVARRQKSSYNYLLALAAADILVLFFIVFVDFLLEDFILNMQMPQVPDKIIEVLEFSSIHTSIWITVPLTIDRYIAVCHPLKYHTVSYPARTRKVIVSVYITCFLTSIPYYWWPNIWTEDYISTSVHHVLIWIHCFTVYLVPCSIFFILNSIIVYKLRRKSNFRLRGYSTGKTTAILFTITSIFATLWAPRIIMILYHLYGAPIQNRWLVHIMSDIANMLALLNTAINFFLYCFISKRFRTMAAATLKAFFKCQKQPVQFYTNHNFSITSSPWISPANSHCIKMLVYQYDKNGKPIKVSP
The assay can be described thus: calcium mobilization assay (FLIPR), GPR139 transiently expressed in HEK293 cells. The class given is cell-based. The arrangement: expressed in transfected cells; host or cells: HEK293. Particulars: HEK293, read-out: % L-phenylalanine at 300 μM (average). An excerpt:
For these experiments human GPR139 was transiently expressed in HEK293 cells and calcium mobilization was stimulated using L-Trp, L-Phe or their derivatives.
A general note: Calcium flux is commonly read through the fluorescence of an indicator in the cells.
For the compound `N[C@@H](Cc1ccc([N+](=O)[O-])cc1[N+](=O)[O-])C(=O)O` [2,4-Dinitro-L-phenylalanine], the activation at 300 µM came to 95%.
As for `N[C@H](Cc1ccc(Br)cc1)C(=O)O` [4-Bromo-D-phenylalanine], the activation at 300 µM is 139%.
On the same count and under the same terms, for `N[C@@H](Cc1ccc(Br)cc1)C(=O)O` [4-Bromo-L-phenylalanine] the value was 153%.

The same assay, now with this note: HEK293; calcium mobilization at 300 μM as percentage of that observed for L-phenylalanine; read-out: % L-phenylalanine at 300 μM (average).
For `N[C@H](Cc1c(F)c(F)c(F)c(F)c1F)C(=O)O` [2,3,4,5,6-Pentafluoro-D-phenylalanine], the activation at 300 µM amounted to 145%.
Take `N[C@H](Cc1ccc(Cl)cc1Cl)C(=O)O` [2,4-Dichloro-D-phenylalanine]: the activation at 300 µM was 135%.
Same read-out and setting: for `N[C@@H](Cc1ccc(Cl)cc1Cl)C(=O)O` [2,4-Dichloro-L-phenylalanine] the value was 122%.
The same measure, in the same setting: for `Cc1ccc(C[C@@H](N)C(=O)O)c(C)c1` [2,4-Dimethyl-D-phenylalanine] the value was 101%; for `Cc1ccc(C[C@H](N)C(=O)O)c(C)c1` [2,4-Dimethyl-L-phenylalanine], 113%; for `N[C@H](Cc1ccccc1Br)C(=O)O` [2-Bromo-D-phenylalanine], 135%.
In the case of `N[C@@H](Cc1ccccc1Br)C(=O)O` [2-Bromo-L-phenylalanine], the activation at 300 µM stood at 168%.
On the same count and under the same terms, for `N[C@@H](Cc1ccccc1F)C(=O)O` [2-Fluoro-L-phenylalanine] the value was 119%.
Regarding `Cc1ccccc1C[C@@H](N)C(=O)O` [2-Methyl-D-phenylalanine], the activation at 300 µM stood at 109%.
Same read-out and setting: for `Cc1ccccc1C[C@H](N)C(=O)O` [2-Methyl-L-phenylalanine] the value was 134%.
Same read-out and setting: for `N[C@@H](Cc1ccccc1[N+](=O)[O-])C(=O)O` [2-Nitro-L-phenylalanine] the value was 150%; for `N[C@@H](Cc1ccccc1C(F)(F)F)C(=O)O` [2-Trifluoromethyl-L-phenylalanine], 110%.
On the same count and under the same terms, for `N[C@H](C(=O)O)C(c1ccccc1)c1ccccc1` [3,3-Diphenyl-L-alanine] the value was 117%; for `N[C@H](Cc1ccc(Cl)c(Cl)c1)C(=O)O` [3,4-Dichloro-D-phenylalanine], 149%.
As for `N[C@@H](Cc1ccc(Cl)c(Cl)c1)C(=O)O` [3,4-Dichloro-L-phenylalanine], the activation at 300 µM was 149%.
Same read-out and setting: for `N[C@H](Cc1ccc(F)c(F)c1)C(=O)O` [3,4-Difluoro-D-phenylalanine] the value was 121%; for `N[C@H](Cc1cc(F)cc(F)c1)C(=O)O` [3,5-Difluoro-D-phenylalanine], 102%.
On the same count and under the same terms, for `N[C@H](Cc1cccc(Br)c1)C(=O)O` [3-Bromo-D-phenylalanine] the value was 172%; for `N[C@@H](Cc1cccc(Br)c1)C(=O)O` [3-Bromo-L-phenylalanine], 167%.
The same measure, in the same setting: for `N[C@H](Cc1cccc(Cl)c1)C(=O)O` [3-Chloro-D-phenylalanine] the value was 147%.
With `N[C@@H](Cc1cccc(Cl)c1)C(=O)O` [3-Chloro-L-phenylalanine], the activation at 300 µM worked out at 145%.
Still for that read-out and setting: for `N#Cc1cccc(C[C@@H](N)C(=O)O)c1` [3-Cyano-D-phenylalanine] the value was 93%; for `N#Cc1cccc(C[C@H](N)C(=O)O)c1` [3-Cyano-L-phenylalanine], 115%.
As for `N[C@H](Cc1cccc(F)c1)C(=O)O` [3-Fluoro-D-phenylalanine], the activation at 300 µM worked out at 94%.
The same measure, in the same setting: for `N[C@@H](Cc1cccc(F)c1)C(=O)O` [3-Fluoro-L-phenylalanine] the value was 114%; for `Cc1cccc(C[C@@H](N)C(=O)O)c1` [3-Methyl-D-phenylalanine], 150%.
Still for that read-out and setting: for `Cc1cccc(C[C@H](N)C(=O)O)c1` [3-Methyl-L-phenylalanine] the value was 147%; for `N[C@H](Cc1cccc([N+](=O)[O-])c1)C(=O)O` [3-Nitro-D-Phenylalanine], 164%.
Same read-out and setting: for `N[C@@H](Cc1cccc([N+](=O)[O-])c1)C(=O)O` [3-Nitro-L-phenylalanine] the value was 131%.
In the case of `N[C@@H](Cc1cccc(C(F)(F)F)c1)C(=O)O` [3-Trifluoromethyl-L-phenylalanine], the activation at 300 µM was found to be 133%.
Turning to `N[C@H](Cc1ccc(Cl)cc1)C(=O)O` [4-Chloro-D-phenylalanine], the activation at 300 µM is 110%.
The same measure, in the same setting: for `N[C@@H](Cc1ccc(Cl)cc1)C(=O)O` [4-Chloro-L-phenylalanine] the value was 146%; for `N[C@H](Cc1ccc(F)cc1)C(=O)O` [4-Fluoro-D-phenylalanine], 91%.
Same read-out and setting: for `N[C@@H](Cc1ccc(F)cc1)C(=O)O` [4-Fluoro-L-phenylalanine] the value was 132%.
Same read-out and setting: for `N[C@H](Cc1ccc(I)cc1)C(=O)O` [4-Iodo-D-phenylalanine] the value was 125%; for `N[C@@H](Cc1ccc(I)cc1)C(=O)O` [4-Iodo-L-phenylalanine], 116%.
Consider `COc1ccc(C[C@H](N)C(=O)O)cc1` [4-Methoxy-L-phenylalanine], for which the activation at 300 µM amounted to 128%.
On to `Cc1ccc(C[C@@H](N)C(=O)O)cc1` [4-Methyl-D-phenylalanine], for which the activation at 300 µM is 102%.
The same measure, in the same setting: for `Cc1ccc(C[C@H](N)C(=O)O)cc1` [4-Methyl-L-phenylalanine] the value was 149%.
Same read-out and setting: for `N[C@H](Cc1ccc([N+](=O)[O-])cc1)C(=O)O` [4-Nitro-D-phenylalanine] the value was 111%; for `N[C@@H](Cc1ccc(C(F)(F)F)cc1)C(=O)O` [4-Trifluoromethyl-L-phenylalanine], 150%.
Regarding `CC(C)(C)c1ccc(C[C@H](N)C(=O)O)cc1` [4-tert-Butyl-L-phenylalanine], the activation at 300 µM was 115%.
In the case of `CC(C)(C)OC(=O)N1Cc2ccccc2C[C@@H]1C(=O)O` [(3R)-2-tert-butoxycarbonyl-3,4-dihydro-1H-isoquinoline-3-carboxylic acid], the activation at 300 µM is 155%.
For `N[C@H](CCCc1ccccc1)C(=O)O` [D-2-Amino-5-phenyl-pentanoic acid], the activation at 300 µM amounted to 129%.
Consider `C[C@](N)(Cc1ccc(F)cc1)C(=O)O` [α-methyl-4-Fluoro-L-phenylalanine], for which the activation at 300 µM is 125%.

The assay is the same for the next values; noted with them: calcium mobilization at 300 μM as percentage of that observed for L-phenylalanine.
Consider `N[C@H](Cc1ccc(Br)s1)C(=O)O` [2-(5-bromothienyl)-D-alanine], for which the “% L-phenylalanine at 300 μM (average)” value is given as 154%.
Still for that read-out and setting: for `N[C@@H](Cc1ccc(Br)s1)C(=O)O` [2-(5-bromothienyl)-L-alanine] the value was 151%.
Still for that read-out and setting: for `O=C(O)[C@@H]1Cc2c([nH]c3ccccc23)CN1` [L-1,2,3,4-tetrahydronorharman-3-carboxylic acid] the value was 151%; for `N[C@H](CCc1ccccc1)C(=O)O` [d-Homo-phenylalanine], 105%.

The values are drawn from patent publication US20160022636A1, “PHYSIOLOGICAL LIGANDS FOR GPR139” (JANSSEN PHARMACEUTICA NV, priority 2013, published 2016).
